# Experimental data: ChEMBL document CHEMBL1132664, “C32-O-phenalkyl ether derivatives of the immunosuppressant ascomycin: a tether length study” (Bioorg Med Chem Lett, 1999)
# How the values were obtained:
# Mus musculus = organism: Mus musculus; experiment: In vitro immunosuppressive activity in murine splenic T cells; format: functional, cell-based; conditions: T-cell
# [1] = biological target: Peptidyl-prolyl cis-trans isomerase FKBP1A (Homo sapiens, UniProt P62942); experiment: Effective concentration determined was towards FK506 binding protein 12 by competitive binding assay using [3H]-dihydro FK-506 as radioligand
# Sequence of Peptidyl-prolyl cis-trans isomerase FKBP1A (P62942 whole entry): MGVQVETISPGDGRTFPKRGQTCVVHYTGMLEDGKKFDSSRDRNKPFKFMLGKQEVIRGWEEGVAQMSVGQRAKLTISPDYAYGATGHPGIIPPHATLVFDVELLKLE
SMILES,IC50 (Mus musculus) [nM],EC50 [1] [nM]
CC[C@@H]1/C=C(\C)C[C@H](C)C[C@H](OC)[C@H]2O[C@@](O)(C(=O)C(=O)N3CCCC[C@H]3C(=O)O[C@H](/C(C)=C/[C@@H]3CC[C@@H](OC(=O)Cc4ccccc4)[C@H](OC)C3)[C@H](C)[C@@H](O)CC1=O)[C@H](C)C[C@@H]2OC,3.5,–
CC[C@@H]1/C=C(\C)C[C@H](C)C[C@H](OC)[C@H]2O[C@@](O)(C(=O)C(=O)N3CCCC[C@H]3C(=O)O[C@H](/C(C)=C/[C@@H]3CC[C@@H](Oc4ccccc4)[C@H](OC)C3)[C@H](C)[C@@H](O)CC1=O)[C@H](C)C[C@@H]2OC,5.4,12
CC[C@@H]1/C=C(\C)C[C@H](C)C[C@H](OC)[C@H]2O[C@@](O)(C(=O)C(=O)N3CCCC[C@H]3C(=O)O[C@H](/C(C)=C/[C@@H]3CC[C@@H](OCCCc4ccccc4)[C@H](OC)C3)[C@H](C)[C@@H](O)CC1=O)[C@H](C)C[C@@H]2OC,3.5,32
CC[C@@H]1/C=C(\C)C[C@H](C)C[C@H](OC)[C@H]2O[C@@](O)(C(=O)C(=O)N3CCCC[C@H]3C(=O)O[C@H](/C(C)=C/[C@@H]3CC[C@@H](OCC(O)c4ccccc4)[C@H](OC)C3)[C@H](C)[C@@H](O)CC1=O)[C@H](C)C[C@@H]2OC (some centres undefined),0.18,–
C=C(CO[C@@H]1CC[C@@H](/C=C(\C)[C@H]2OC(=O)[C@@H]3CCCCN3C(=O)C(=O)[C@]3(O)O[C@H]([C@@H](OC)C[C@@H](C)C/C(C)=C/[C@@H](CC)C(=O)C[C@H](O)[C@H]2C)[C@@H](OC)C[C@H]3C)C[C@H]1OC)c1ccccc1,1,–
CC[C@@H]1/C=C(\C)C[C@H](C)C[C@H](OC)[C@H]2O[C@@](O)(C(=O)C(=O)N3CCCC[C@H]3C(=O)O[C@H](/C(C)=C/[C@@H]3CC[C@@H](OCCO)[C@H](OC)C3)[C@H](C)[C@@H](O)CC1=O)[C@H](C)C[C@@H]2OC,4.3,–
CC[C@@H]1/C=C(\C)C[C@H](C)C[C@H](OC)[C@H]2O[C@@](O)(C(=O)C(=O)N3CCCC[C@H]3C(=O)O[C@H](/C(C)=C/[C@@H]3CC[C@@H](OCc4ccccc4)[C@H](OC)C3)[C@H](C)[C@@H](O)CC1=O)[C@H](C)C[C@@H]2OC,3,5.3
CC[C@@H]1/C=C(\C)C[C@H](C)C[C@H](OC)[C@H]2O[C@@](O)(C(=O)C(=O)N3CCCC[C@H]3C(=O)O[C@H](/C(C)=C/[C@@H]3CC[C@@H](OCCc4ccccc4)[C@H](OC)C3)[C@H](C)[C@@H](O)CC1=O)[C@H](C)C[C@@H]2OC,0.61,9.2
CC[C@@H]1/C=C(\C)C[C@H](C)C[C@H](OC)[C@H]2O[C@@](O)(C(=O)C(=O)N3CCCC[C@H]3C(=O)O[C@H](/C(C)=C/[C@@H]3CC[C@@H](OCC(=O)c4ccccc4)[C@H](OC)C3)[C@H](C)[C@@H](O)CC1=O)[C@H](C)C[C@@H]2OC,0.27,–
CC[C@@H]1/C=C(\C)C[C@H](C)C[C@H](OC)[C@H]2O[C@@](O)(C(=O)C(=O)N3CCCC[C@H]3C(=O)O[C@H](/C(C)=C/[C@@H]3CC[C@@H](O)[C@H](OC)C3)[C@H](C)[C@@H](O)CC1=O)[C@H](C)C[C@@H]2OC [ASCOMYCIN],0.69,–
